Measurements taken from US7880007B2, “Bicyclic substituted phenyl piperidine modulators of muscarinic receptors” (Vertex Pharmaceuticals Incorporated, priority 2004, dated 2011).

How the values were obtained:
Assay type in all cases: cell-based
M1 muscarinic receptor = target: T1, M1 muscarinic receptor (Homo sapiens, UniProt P11229); experiment: Functional mobilization of intracellular calcium (FLIPR), M1-CHO cells; details: for M1 Activity: M1-CHO cells, calcium mobilization (FLIPR)
T1 construct: expressed in transfected cells; host or cells: CHO (M1-CHO)
T1 sequence (P11229 1-460): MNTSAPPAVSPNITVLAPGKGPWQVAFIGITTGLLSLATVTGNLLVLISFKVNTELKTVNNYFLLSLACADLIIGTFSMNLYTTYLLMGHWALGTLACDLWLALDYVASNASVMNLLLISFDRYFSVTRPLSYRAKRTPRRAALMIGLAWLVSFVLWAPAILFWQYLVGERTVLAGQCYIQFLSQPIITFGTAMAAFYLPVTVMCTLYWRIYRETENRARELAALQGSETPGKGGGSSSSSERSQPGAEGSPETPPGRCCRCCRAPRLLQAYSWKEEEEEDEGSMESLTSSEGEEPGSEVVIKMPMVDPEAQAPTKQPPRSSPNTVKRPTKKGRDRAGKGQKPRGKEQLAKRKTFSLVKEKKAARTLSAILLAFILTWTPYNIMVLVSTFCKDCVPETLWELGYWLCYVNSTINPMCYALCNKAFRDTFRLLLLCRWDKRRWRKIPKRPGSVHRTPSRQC
Procedure, shortened: (§1)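 Calcium mobilisation read by FLIPR over 60 s (ex 488/em 540 nm) in recombinant muscarinic CHO lines loaded with calcium dye plus 1 mM probenecid. Compounds tested as agonists alone, or as inhibitors against EC80 carbachol after 15 min pre-incubation or co-addition; 0.5% DMSO; efficacy scaled to carbachol maximal response.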

M2 muscarinic receptor = target: T2, M2 muscarinic receptor (Homo sapiens, UniProt P08172); experiment: Functional mobilization of intracellular calcium (FLIPR), M2-CHO cells; details: for M2 Activity: M2-CHO cells, calcium mobilization (FLIPR)
T2 construct: expressed in transfected cells; host or cells: CHO (M2-CHO)
T2 sequence (P08172 1-466): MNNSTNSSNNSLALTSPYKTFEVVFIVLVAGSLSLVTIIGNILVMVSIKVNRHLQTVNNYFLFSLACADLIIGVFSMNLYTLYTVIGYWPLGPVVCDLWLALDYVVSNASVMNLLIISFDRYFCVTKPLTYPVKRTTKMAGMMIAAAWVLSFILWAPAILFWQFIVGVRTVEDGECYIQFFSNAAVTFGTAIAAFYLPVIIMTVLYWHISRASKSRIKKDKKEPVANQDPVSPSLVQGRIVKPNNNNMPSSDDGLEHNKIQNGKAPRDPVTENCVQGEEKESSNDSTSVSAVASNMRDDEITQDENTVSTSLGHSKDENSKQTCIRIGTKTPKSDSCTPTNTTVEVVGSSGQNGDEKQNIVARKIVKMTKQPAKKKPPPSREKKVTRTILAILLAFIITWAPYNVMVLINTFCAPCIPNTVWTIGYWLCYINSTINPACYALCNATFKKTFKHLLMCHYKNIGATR
Procedure, shortened: as §1

M3 muscarinic receptor = target: T3, M3 muscarinic receptor (Homo sapiens, UniProt P20309); experiment: Functional mobilization of intracellular calcium (FLIPR), M3-CHO cells; details: for M3 Activity: M3-CHO cells, calcium mobilization (FLIPR)
T3 construct: expressed in transfected cells; host or cells: CHO (M3-CHO)
Procedure, shortened: as §1

M4 muscarinic receptor = target: T4, M4 muscarinic receptor (Homo sapiens, UniProt P08173); experiment: Functional mobilization of intracellular calcium (FLIPR), M4-CHO cells; details: for M4 Activity: M4-CHO cells, calcium mobilization (FLIPR)
T4 construct: expressed in transfected cells; host or cells: CHO (M4-CHO)
T4 sequence (P08173 1-479): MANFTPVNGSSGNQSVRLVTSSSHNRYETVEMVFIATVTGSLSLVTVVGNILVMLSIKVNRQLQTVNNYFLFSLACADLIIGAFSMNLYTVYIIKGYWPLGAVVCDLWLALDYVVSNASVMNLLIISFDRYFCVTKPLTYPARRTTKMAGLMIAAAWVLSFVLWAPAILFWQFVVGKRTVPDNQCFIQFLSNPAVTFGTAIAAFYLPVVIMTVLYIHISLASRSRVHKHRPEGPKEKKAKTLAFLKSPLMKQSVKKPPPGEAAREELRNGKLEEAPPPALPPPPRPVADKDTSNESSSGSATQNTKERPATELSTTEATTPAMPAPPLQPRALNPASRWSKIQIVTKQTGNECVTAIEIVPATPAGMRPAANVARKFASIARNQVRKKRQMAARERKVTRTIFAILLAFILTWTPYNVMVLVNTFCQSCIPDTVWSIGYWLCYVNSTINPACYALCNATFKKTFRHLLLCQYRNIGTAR
Procedure, shortened: as §1

[1] = 100% efficacy = maximum response obtained with the Carbachol control
[2] = 100% efficacy is the maximum response obtained with the Carbachol control

T3 sequence (P20309 whole entry): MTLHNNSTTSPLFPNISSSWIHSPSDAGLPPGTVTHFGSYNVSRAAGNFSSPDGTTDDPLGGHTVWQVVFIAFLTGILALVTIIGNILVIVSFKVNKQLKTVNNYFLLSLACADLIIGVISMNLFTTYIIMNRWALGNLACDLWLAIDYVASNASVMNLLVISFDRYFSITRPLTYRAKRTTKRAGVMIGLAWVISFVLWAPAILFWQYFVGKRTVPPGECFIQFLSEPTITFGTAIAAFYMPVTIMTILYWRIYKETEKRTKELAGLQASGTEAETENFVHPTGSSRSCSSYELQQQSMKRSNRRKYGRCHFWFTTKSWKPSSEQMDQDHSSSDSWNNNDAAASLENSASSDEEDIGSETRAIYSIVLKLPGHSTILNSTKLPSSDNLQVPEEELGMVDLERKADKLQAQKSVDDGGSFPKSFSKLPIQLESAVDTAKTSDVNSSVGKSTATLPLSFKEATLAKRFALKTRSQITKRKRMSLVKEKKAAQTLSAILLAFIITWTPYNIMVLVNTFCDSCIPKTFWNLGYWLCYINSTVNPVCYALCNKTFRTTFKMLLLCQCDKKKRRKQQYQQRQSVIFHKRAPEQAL

| SMILES | Emax (M1 muscarinic receptor; [1]) [%] | M1 Activity (M1 muscarinic receptor) | Emax (M2 muscarinic receptor; [1]) [%] | M2 Activity (M2 muscarinic receptor) | Emax (M3 muscarinic receptor; [1]) [%] | M3 Activity (M3 muscarinic receptor) | Emax (M4 muscarinic receptor; [1]) [%] | M4 Activity (M4 muscarinic receptor) | Emax (M1 muscarinic receptor; [2]) [%] | Emax (M2 muscarinic receptor; [2]) [%] | Emax (M3 muscarinic receptor; [2]) [%] | Emax (M4 muscarinic receptor; [2]) [%] |
| --- | --- | --- | --- | --- | --- | --- | --- | --- | --- | --- | --- | --- |
| COc1ccc(-c2ccc3c(c2)OCO3)cc1C1CCN(C2CCOCC2)CC1 [Compound 52] | < 25 | + (activity was measured to be greater than 5.0 μM) | < 25 | + (activity was measured to be greater than 5.0 μM) | < 25 | + (activity was measured to be greater than 5.0 μM) | 25 to 100 | + (activity was measured to be greater than 5.0 μM) | – | – | – | – |
| COc1ccccc1C1CC2CCC(C1)N2C1CCCCC1 (centres unmarked) [Compound 132] | < 25 | ++ (activity was measured to be from 1.0 μM to 5.0 μM) | < 25 | + (activity was measured to be greater than 5.0 μM) | < 25 | + (activity was measured to be greater than 5.0 μM) | < 25 | ++ (activity was measured to be from 1.0 μM to 5.0 μM) | – | – | – | – |
| COc1ccc(-c2ccc(C(=O)N3CCCC3)cc2)cc1C1CCN([C@H]2C[C@H]3CC[C@H]2C3)CC1 [Compound 17] | < 25 | + (activity was measured to be greater than 5.0 μM) | < 25 | + (activity was measured to be greater than 5.0 μM) | < 25 | + (activity was measured to be greater than 5.0 μM) | 25 to 100 | ++ (activity was measured to be from 1.0 μM to 5.0 μM) | – | – | – | – |
| COc1ccc(-c2ccc(C(N)=O)cc2)cc1C1CCN([C@H]2C[C@H]3CC[C@H]2C3)CC1 [Compound 407] | – | + (activity was measured to be greater than 5.0 μM) | – | + (activity was measured to be greater than 5.0 μM) | – | + (activity was measured to be greater than 5.0 μM) | – | +++ (activity was measured to be less than 1.0 μM) | < 25 | < 25 | < 25 | 25 to 100 |
| COc1ccccc1C1CCN(C2CCC(c3ccccc3)CC2)CC1 (centres unmarked) [Compound 234] | < 25 | + (activity was measured to be greater than 5.0 μM) | < 25 | + (activity was measured to be greater than 5.0 μM) | < 25 | + (activity was measured to be greater than 5.0 μM) | < 25 | + (activity was measured to be greater than 5.0 μM) | – | – | – | – |
| CCC(=O)COc1ccccc1C1CCN([C@H]2C[C@H]3CC[C@H]2C3)CC1 [Compound 19] | 25 to 100 | ++ (activity was measured to be from 1.0 μM to 5.0 μM) | < 25 | + (activity was measured to be greater than 5.0 μM) | < 25 | + (activity was measured to be greater than 5.0 μM) | 25 to 100 | +++ (activity was measured to be less than 1.0 μM) | – | – | – | – |
| CCOC(=O)N1CCC(CN2CCC(c3cc(OC)cc(F)c3F)CC2)CC1 [Compound 177] | 25 to 100 | +++ (activity was measured to be less than 1.0 μM) | < 25 | + (activity was measured to be greater than 5.0 μM) | < 25 | + (activity was measured to be greater than 5.0 μM) | 25 to 100 | +++ (activity was measured to be less than 1.0 μM) | – | – | – | – |
| Cc1ccc(C)c(C2CCN(C3CC4CCC3C4)CC2)c1 (centres unmarked) [Compound 341] | < 25 | + (activity was measured to be greater than 5.0 μM) | < 25 | + (activity was measured to be greater than 5.0 μM) | – | + (activity was measured to be greater than 5.0 μM) | 25 to 100 | ++ (activity was measured to be from 1.0 μM to 5.0 μM) | – | – | – | – |
| COc1ccc(F)cc1C1(F)CCN(C2CCOCC2)CC1 [Compound 314] | < 25 | + (activity was measured to be greater than 5.0 μM) | < 25 | + (activity was measured to be greater than 5.0 μM) | < 25 | + (activity was measured to be greater than 5.0 μM) | 25 to 100 | + (activity was measured to be greater than 5.0 μM) | – | – | – | – |
| COc1ccc(C(=O)COc2ccccc2C2CCN([C@H]3C[C@H]4CC[C@H]3C4)CC2)cc1 [Compound 57] | 25 to 100 | ++ (activity was measured to be from 1.0 μM to 5.0 μM) | 25 to 100 | ++ (activity was measured to be from 1.0 μM to 5.0 μM) | < 25 | + (activity was measured to be greater than 5.0 μM) | 25 to 100 | ++ (activity was measured to be from 1.0 μM to 5.0 μM) | – | – | – | – |
| CCOC(=O)N1CCC(N2CCC(c3cc(F)ccc3OC)CC2)CC1 [Compound 106] | 25 to 100 | +++ (activity was measured to be less than 1.0 μM) | 25 to 100 | +++ (activity was measured to be less than 1.0 μM) | < 25 | +++ (activity was measured to be less than 1.0 μM) | 25 to 100 | +++ (activity was measured to be less than 1.0 μM) | – | – | – | – |
| COc1ccc(F)cc1C1(OC)CCN(C[C@H]2C[C@H]3C=C[C@H]2C3)CC1 [Compound 292] | 25 to 100 | ++ (activity was measured to be from 1.0 μM to 5.0 μM) | 25 to 100 | ++ (activity was measured to be from 1.0 μM to 5.0 μM) | < 25 | + (activity was measured to be greater than 5.0 μM) | 25 to 100 | +++ (activity was measured to be less than 1.0 μM) | – | – | – | – |
| COc1ccc(Cl)cc1C1(F)CCN([C@H]2C[C@H]3CC[C@H]2C3)CC1 [Compound 367] | < 25 | + (activity was measured to be greater than 5.0 μM) | < 25 | + (activity was measured to be greater than 5.0 μM) | < 25 | + (activity was measured to be greater than 5.0 μM) | < 25 | + (activity was measured to be greater than 5.0 μM) | – | – | – | – |
| COc1ccc(Cl)cc1C1(F)CCN(C2CCCCC2)CC1 [Compound 409] | – | + (activity was measured to be greater than 5.0 μM) | – | + (activity was measured to be greater than 5.0 μM) | – | + (activity was measured to be greater than 5.0 μM) | – | ++ (activity was measured to be from 1.0 μM to 5.0 μM) | 25 to 100 | 25 to 100 | < 25 | 25 to 100 |
| COc1ccccc1C1CCN(C2CCC[C@@H](C)C2)CC1 (some centres unmarked) [Compound 38] | < 25 | + (activity was measured to be greater than 5.0 μM) | < 25 | + (activity was measured to be greater than 5.0 μM) | < 25 | + (activity was measured to be greater than 5.0 μM) | 25 to 100 | +++ (activity was measured to be less than 1.0 μM) | – | – | – | – |
